# Experimental data taken from PubChem BioAssay AID228 (DTP/NCI, 2004).
# Values joined by “and” are separate entries in the source; they are usually repeats but may differ in a detail not shown here. Equal entries are not always repeated. Inconclusive results are not listed.
# System: BDF1 mice, Friend leukemia sc, tumor weight T/C
# Assay: NCI In Vivo Anticancer Drug Screen. Data for tumor model Friend Virus Leukemia (Solid) (subcutaneous) in B6D2F1 (BDF1) mice
# Settings: endpoint: mean tumor weight, schedule: Q01DX011 (ip), higher = larger tumour
# Protocol: The antitumor activity of compounds was measured in mice bearing transplantable tumors. Survival or tumor size were measured and the results are expressed as the measurement made in the treated group (T) divided by the measurement made in the vehicle treated control group (C). The tumor model used in this assay is Friend Virus Leukemia (Solid) (subcutaneous) in B6D2F1 (BDF1) mice
# [1] = dose: 75.0 mg/kg/injection, vehicle: carboxymethylcellulose (CMC)
# [2] = dose: 150.0 mg/kg/injection, vehicle: carboxymethylcellulose (CMC)
# [3] = dose: 300.0 mg/kg/injection, vehicle: carboxymethylcellulose (CMC)
# [4] = dose: 0.6 mg/kg/injection, vehicle: carboxymethylcellulose (CMC)
# [5] = dose: 1.0 mg/kg/injection, vehicle: carboxymethylcellulose (CMC)
# [6] = dose: 1.5 mg/kg/injection, vehicle: carboxymethylcellulose (CMC)
# [7] = dose: 125.0 mg/kg/injection, vehicle: saline
# [8] = dose: 3.0 mg/kg/injection, vehicle: carboxymethylcellulose (CMC)
# [9] = dose: 12.0 mg/kg/injection, vehicle: carboxymethylcellulose (CMC)
# [10] = dose: 62.0 mg/kg/injection, vehicle: carboxymethylcellulose (CMC)
# [11] = dose: 125.0 mg/kg/injection, vehicle: carboxymethylcellulose (CMC)
# [12] = dose: 15.0 mg/kg/injection, vehicle: saline
structure (smiles),measurement,setting,value
O=C1NC2C(NC(=O)N2Cl)N1Cl (stereo not given),T/C,"dose: 20.0 mg/kg/injection, vehicle: saline",105 % of control
same,T/C,"dose: 40.0 mg/kg/injection, vehicle: saline",103 % of control
Nc1ccc(O)cc1,T/C,"dose: 100.0 mg/kg/injection, vehicle: saline",64 % of control
same,T/C,"dose: 200.0 mg/kg/injection, vehicle: saline",4 % of control
ClCCn1cnc2c(SCc3ccccc3)ncnc21,T/C,"dose: 18.0 mg/kg/injection, vehicle: carboxymethylcellulose (CMC)",85 % of control
same,T/C,"dose: 37.0 mg/kg/injection, vehicle: carboxymethylcellulose (CMC)",35 % of control
same,T/C,[1],32 % of control
same,T/C,[2],11 % of control and 35 % of control
same,T/C,[3],4 % of control
NNC(=O)c1nsnc1NC(N)=O,T/C,"dose: 43.0 mg/kg/injection, vehicle: carboxymethylcellulose (CMC)",53 % of control
same,T/C,"dose: 60.0 mg/kg/injection, vehicle: carboxymethylcellulose (CMC)",46 % of control
Nc1nc(=S)c2ncn(C3OC(CO)C(O)C3O)c2[nH]1 (stereo not given),T/C,"dose: 0.18 mg/kg/injection, vehicle: carboxymethylcellulose (CMC)",74 % of control
same,T/C,"dose: 0.37 mg/kg/injection, vehicle: carboxymethylcellulose (CMC)",63 % of control
same,T/C,[4],53 % of control
same,T/C,[5],36 % of control
same,T/C,[6],31 % of control and 48 % of control
Nc1ncnc2c1ccn2C1OC(CO)C(O)C1O (stereo not given),T/C,[4],104 % of control
same,T/C,"dose: 1.25 mg/kg/injection, vehicle: carboxymethylcellulose (CMC)",72 % of control
O=c1cnn(C2OC(CO)C(O)C2O)c(=O)[nH]1 (stereo not given),T/C,"dose: 62.5 mg/kg/injection, vehicle: saline",160 % of control
same,T/C,[7],170 % of control
same,T/C,"dose: 500.0 mg/kg/injection, vehicle: saline",105 % of control
CNS(=O)(=O)c1ncnc2nc[nH]c12,T/C,"dose: 20.0 mg/kg/injection, vehicle: carboxymethylcellulose (CMC)",94 % of control
same,T/C,"dose: 26.0 mg/kg/injection, vehicle: carboxymethylcellulose (CMC)",86 % of control
same,T/C,"dose: 35.0 mg/kg/injection, vehicle: carboxymethylcellulose (CMC)",96 % of control
same,T/C,"dose: 70.62 mg/kg/injection, vehicle: carboxymethylcellulose (CMC)",43 % of control
same,T/C,"dose: 107.0 mg/kg/injection, vehicle: carboxymethylcellulose (CMC)",49 % of control
NCC(O)c1ccc(O)c(O)c1 (stereo not given),T/C,"dose: 9.37 mg/kg/injection, vehicle: saline",84 % of control
same,T/C,"dose: 18.75 mg/kg/injection, vehicle: saline",69 % of control
same,T/C,"dose: 37.5 mg/kg/injection, vehicle: saline",30 % of control
CCSCCC(N)C(=O)O (stereo not given),T/C,"dose: 10.2 mg/kg/injection, vehicle: carboxymethylcellulose (CMC)",114 % of control
same,T/C,"dose: 20.5 mg/kg/injection, vehicle: carboxymethylcellulose (CMC)",80 % of control
same,T/C,"dose: 41.0 mg/kg/injection, vehicle: carboxymethylcellulose (CMC)",109 % of control
same,T/C,"dose: 82.0 mg/kg/injection, vehicle: carboxymethylcellulose (CMC)",111 % of control
COC(=S)SCN(CSC(=S)OC)c1ccccc1Cl,T/C,[7],95 % of control
same,T/C,"dose: 250.0 mg/kg/injection, vehicle: saline",107 % of control
CCN(CC)c1ccc(/C=C/c2ccnc3ccccc23)cc1,T/C,[6],202 % of control
same,T/C,[8],280 % of control
same,T/C,[9],106 % of control
O=C(Nc1ccc(C2=NCCN2)cc1)c1cc(Cl)cc(C(=O)Nc2ccc(C3=NCCN3)cc2)c1,T/C,[10],75 % of control
same,T/C,[11],111 % of control
same,T/C,"dose: 250.0 mg/kg/injection, vehicle: carboxymethylcellulose (CMC)",81 % of control
same,T/C,"dose: 500.0 mg/kg/injection, vehicle: carboxymethylcellulose (CMC)",114 % of control
CCOc1ccc2nc(S(N)(=O)=O)sc2c1,T/C,[10],77 % of control
same,T/C,[11],89 % of control
Nc1nc(SCc2ccccc2Cl)c2ncn(C3OC(CO)C(O)C3O)c2n1 (stereo not given),T/C,"dose: 0.38 mg/kg/injection, vehicle: carboxymethylcellulose (CMC)",102 % of control
same,T/C,"dose: 0.75 mg/kg/injection, vehicle: carboxymethylcellulose (CMC)",70 % of control
same,T/C,[5],61 % of control
same,T/C,[6],83 % of control
same,T/C,[8],61 % of control and 68 % of control
same,T/C,"dose: 6.0 mg/kg/injection, vehicle: carboxymethylcellulose (CMC)",61 % of control and 68 % of control
same,T/C,[9],16 % of control and 41 % of control
same,T/C,"dose: 25.0 mg/kg/injection, vehicle: carboxymethylcellulose (CMC)",10 % of control and 28 % of control
same,T/C,"dose: 50.0 mg/kg/injection, vehicle: carboxymethylcellulose (CMC)",2 % of control
CN(N=O)C(N)=O,T/C,"dose: 4.0 mg/kg/injection, vehicle: carboxymethylcellulose (CMC)",94 % of control and 95 % of control
same,T/C,"dose: 5.0 mg/kg/injection, vehicle: saline",53 % of control
same,T/C,"dose: 8.0 mg/kg/injection, vehicle: carboxymethylcellulose (CMC)",98 % of control and 117 % of control
same,T/C,"dose: 10.0 mg/kg/injection, vehicle: saline",31 % of control
same,T/C,[12],20 % of control
same,T/C,"dose: 16.0 mg/kg/injection, vehicle: carboxymethylcellulose (CMC)",46 % of control and 49 % of control
same,T/C,"dose: 22.0 mg/kg/injection, vehicle: saline",22 % of control
same,T/C,"dose: 30.0 mg/kg/injection, vehicle: carboxymethylcellulose (CMC)",59 % of control
O=C(O)Cc1ccc(C2CCCCC2)cc1,T/C,"dose: 37.5 mg/kg/injection, vehicle: carboxymethylcellulose (CMC)",106 % of control
same,T/C,[1],114 % of control
same,T/C,[2],106 % of control
same,T/C,[3],94 % of control
CSc1ncnc2c1ncn2C1OC(CO)C(O)C1O (stereo not given),T/C,"dose: 6.0 mg/kg/injection, vehicle: saline",105 % of control
same,T/C,"dose: 9.0 mg/kg/injection, vehicle: saline",121 % of control
same,T/C,"dose: 12.5 mg/kg/injection, vehicle: saline",99 % of control
same,T/C,[12],112 % of control
CCCC(Sc1nc(N)nc2nc[nH]c12)C(=O)O (stereo not given),T/C,"dose: 40.0 mg/kg/injection, vehicle: carboxymethylcellulose (CMC)",77 % of control
same,T/C,"dose: 80.0 mg/kg/injection, vehicle: carboxymethylcellulose (CMC)",45 % of control
same,T/C,"dose: 160.0 mg/kg/injection, vehicle: carboxymethylcellulose (CMC)",5 % of control
C=CC1CN2CCC1CC2C(O)c1ccnc2ccc(OC)cc12 (stereo not given),T/C,"dose: 27.0 mg/kg/injection, vehicle: carboxymethylcellulose (CMC)",104 % of control
same,T/C,"dose: 27.0 mg/kg/injection, vehicle: other",202 % of control
same,T/C,"dose: 27.5 mg/kg/injection, vehicle: other",226 % of control
same,T/C,"dose: 55.0 mg/kg/injection, vehicle: carboxymethylcellulose (CMC)",114 % of control
same,T/C,"dose: 55.0 mg/kg/injection, vehicle: other",263 % of control
same,T/C,"dose: 110.0 mg/kg/injection, vehicle: other",105 % of control and 219 % of control
same,T/C,"dose: 220.0 mg/kg/injection, vehicle: carboxymethylcellulose (CMC)",90 % of control
same,T/C,"dose: 220.0 mg/kg/injection, vehicle: other",204 % of control
